Reference: the kinase profiling compilation of Christmann-Franck et al. (2016)

Columns and labels:
Assay in all cases: KINOMEscan competition binding
Conditions in all cases: compound 10.0 µM
CSK (human) = CSK (human) (UniProt P41240)
CDK9 (human) = CDK9 (human) (UniProt P50750)
MAPK12 (human) = MAPK12 (human) (UniProt P53778)
MERTK (human) = MERTK (human) (UniProt Q12866)
RPS6KA4 KD2 (human) = RPS6KA4 KD2 (human) (UniProt O75676)
CSNK1G3 (human) = CSNK1G3 (human) (UniProt Q9Y6M4)
STK32C (human) = STK32C (human) (UniProt Q86UX6)
EPHA8 (human) = EPHA8 (human) (UniProt P29322)
Sequence of EPHA8 (human) (P29322 whole entry, looked up): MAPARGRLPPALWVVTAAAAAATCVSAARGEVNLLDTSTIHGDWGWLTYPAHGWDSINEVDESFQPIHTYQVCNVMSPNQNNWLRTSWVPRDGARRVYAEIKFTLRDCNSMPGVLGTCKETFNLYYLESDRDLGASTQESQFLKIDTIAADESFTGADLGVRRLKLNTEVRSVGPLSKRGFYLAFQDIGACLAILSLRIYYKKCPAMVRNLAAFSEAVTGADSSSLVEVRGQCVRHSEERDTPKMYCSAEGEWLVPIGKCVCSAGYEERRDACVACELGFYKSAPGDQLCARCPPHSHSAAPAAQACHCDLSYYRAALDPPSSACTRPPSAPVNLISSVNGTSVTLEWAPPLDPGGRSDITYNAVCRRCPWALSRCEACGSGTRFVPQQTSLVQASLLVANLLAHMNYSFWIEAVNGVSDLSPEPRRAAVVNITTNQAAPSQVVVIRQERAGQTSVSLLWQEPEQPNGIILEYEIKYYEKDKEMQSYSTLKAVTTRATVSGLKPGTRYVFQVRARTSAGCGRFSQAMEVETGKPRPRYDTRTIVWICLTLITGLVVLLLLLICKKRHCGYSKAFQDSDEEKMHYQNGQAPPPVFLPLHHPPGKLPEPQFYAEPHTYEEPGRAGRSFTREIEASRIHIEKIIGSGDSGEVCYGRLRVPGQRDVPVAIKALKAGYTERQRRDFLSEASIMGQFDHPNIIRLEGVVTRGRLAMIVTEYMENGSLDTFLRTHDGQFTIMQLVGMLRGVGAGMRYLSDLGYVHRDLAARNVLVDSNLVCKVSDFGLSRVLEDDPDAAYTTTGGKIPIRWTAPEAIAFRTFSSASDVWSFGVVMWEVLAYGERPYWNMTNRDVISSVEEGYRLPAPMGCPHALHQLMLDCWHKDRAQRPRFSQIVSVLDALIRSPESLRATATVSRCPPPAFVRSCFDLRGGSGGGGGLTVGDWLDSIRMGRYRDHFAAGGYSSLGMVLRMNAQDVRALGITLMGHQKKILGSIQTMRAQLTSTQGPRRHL

PAK7 (human) = PAK7 (human) (UniProt Q9P286)
ADCK3 (human) = ADCK3 (human) (UniProt Q8NI60)
MAPKAPK5 (human) = MAPKAPK5 (human) (UniProt Q8IW41)
Sequence of MAPKAPK5 (human) (Q8IW41 whole entry, looked up): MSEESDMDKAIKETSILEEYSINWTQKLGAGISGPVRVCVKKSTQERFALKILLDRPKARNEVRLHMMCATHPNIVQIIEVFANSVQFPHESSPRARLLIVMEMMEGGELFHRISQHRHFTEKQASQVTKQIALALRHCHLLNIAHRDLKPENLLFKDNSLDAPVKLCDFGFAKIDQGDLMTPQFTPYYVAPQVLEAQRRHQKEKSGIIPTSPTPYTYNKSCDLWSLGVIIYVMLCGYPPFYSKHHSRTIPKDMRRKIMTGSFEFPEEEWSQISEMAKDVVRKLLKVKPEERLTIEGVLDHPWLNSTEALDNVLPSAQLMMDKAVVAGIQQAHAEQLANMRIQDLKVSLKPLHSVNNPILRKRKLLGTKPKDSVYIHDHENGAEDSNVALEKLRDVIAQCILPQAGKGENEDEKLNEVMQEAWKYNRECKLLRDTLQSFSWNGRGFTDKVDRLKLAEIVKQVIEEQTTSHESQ

CAMK2G (human) = CAMK2G (human) (UniProt Q13555)
NEK9 (human) = NEK9 (human) (UniProt Q8TD19)
MARK3 (human) = MARK3 (human) (UniProt P27448)
Sequence of MARK3 (human) (P27448 whole entry, looked up): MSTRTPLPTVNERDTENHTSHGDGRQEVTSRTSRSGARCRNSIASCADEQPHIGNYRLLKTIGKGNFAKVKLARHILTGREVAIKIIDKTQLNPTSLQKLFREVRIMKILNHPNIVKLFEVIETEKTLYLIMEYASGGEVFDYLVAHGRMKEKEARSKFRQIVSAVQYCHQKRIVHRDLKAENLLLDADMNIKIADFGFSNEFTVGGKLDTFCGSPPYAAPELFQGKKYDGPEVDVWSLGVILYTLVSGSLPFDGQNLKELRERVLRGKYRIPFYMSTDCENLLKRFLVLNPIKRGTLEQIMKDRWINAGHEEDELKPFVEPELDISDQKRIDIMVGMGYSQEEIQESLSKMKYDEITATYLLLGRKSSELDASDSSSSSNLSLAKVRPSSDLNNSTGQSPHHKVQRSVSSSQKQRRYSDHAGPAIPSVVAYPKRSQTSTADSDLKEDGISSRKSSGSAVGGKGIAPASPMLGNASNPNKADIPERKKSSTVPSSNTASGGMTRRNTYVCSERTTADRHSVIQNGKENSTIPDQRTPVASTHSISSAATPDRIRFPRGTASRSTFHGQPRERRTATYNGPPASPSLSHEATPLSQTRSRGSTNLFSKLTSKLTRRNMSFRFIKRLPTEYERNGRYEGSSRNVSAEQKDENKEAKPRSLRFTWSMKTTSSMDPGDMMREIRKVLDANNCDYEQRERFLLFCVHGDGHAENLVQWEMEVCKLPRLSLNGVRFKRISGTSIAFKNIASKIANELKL

FYN (human) = FYN (human) (UniProt P06241)
PIK3CD (human) = PIK3CD (human) (UniProt O00329)
LIMK1 (human) = LIMK1 (human) (UniProt P53667)
PAK6 (human) = PAK6 (human) (UniProt Q9NQU5)
CLK3 (human) = CLK3 (human) (UniProt P49761)
CSNK1G2 (human) = CSNK1G2 (human) (UniProt P78368)
INSRR (human) = INSRR (human) (UniProt P14616)
STK4 (human) = STK4 (human) (UniProt Q13043)
Sequence of STK4 (human) (Q13043 whole entry, looked up): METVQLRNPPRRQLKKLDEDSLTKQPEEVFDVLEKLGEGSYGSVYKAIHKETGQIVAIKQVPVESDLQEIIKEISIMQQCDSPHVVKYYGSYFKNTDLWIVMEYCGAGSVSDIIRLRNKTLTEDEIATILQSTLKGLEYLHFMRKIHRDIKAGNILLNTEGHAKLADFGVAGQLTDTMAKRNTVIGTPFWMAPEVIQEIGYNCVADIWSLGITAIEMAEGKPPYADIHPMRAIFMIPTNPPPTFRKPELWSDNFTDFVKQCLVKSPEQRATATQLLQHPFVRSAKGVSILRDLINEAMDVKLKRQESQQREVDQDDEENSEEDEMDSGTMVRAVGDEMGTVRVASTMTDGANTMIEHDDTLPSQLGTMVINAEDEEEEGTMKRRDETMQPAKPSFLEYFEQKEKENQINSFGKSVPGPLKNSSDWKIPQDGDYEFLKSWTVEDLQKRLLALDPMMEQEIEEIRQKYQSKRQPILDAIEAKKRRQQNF

MAPK11 (human) = MAPK11 (human) (UniProt Q15759)
MYO3B (human) = MYO3B (human) (UniProt Q8WXR4)
MELK (human) = MELK (human) (UniProt Q14680)
LYN (human) = LYN (human) (UniProt P07948)
CSNK1D (human) = CSNK1D (human) (UniProt P48730)
SLK (human) = SLK (human) (UniProt Q9H2G2)
MYLK2 (human) = MYLK2 (human) (UniProt Q9H1R3)
PDGFRA (human) = PDGFRA (human) (UniProt P16234)
Sequence of PDGFRA (human) (P16234 whole entry, looked up): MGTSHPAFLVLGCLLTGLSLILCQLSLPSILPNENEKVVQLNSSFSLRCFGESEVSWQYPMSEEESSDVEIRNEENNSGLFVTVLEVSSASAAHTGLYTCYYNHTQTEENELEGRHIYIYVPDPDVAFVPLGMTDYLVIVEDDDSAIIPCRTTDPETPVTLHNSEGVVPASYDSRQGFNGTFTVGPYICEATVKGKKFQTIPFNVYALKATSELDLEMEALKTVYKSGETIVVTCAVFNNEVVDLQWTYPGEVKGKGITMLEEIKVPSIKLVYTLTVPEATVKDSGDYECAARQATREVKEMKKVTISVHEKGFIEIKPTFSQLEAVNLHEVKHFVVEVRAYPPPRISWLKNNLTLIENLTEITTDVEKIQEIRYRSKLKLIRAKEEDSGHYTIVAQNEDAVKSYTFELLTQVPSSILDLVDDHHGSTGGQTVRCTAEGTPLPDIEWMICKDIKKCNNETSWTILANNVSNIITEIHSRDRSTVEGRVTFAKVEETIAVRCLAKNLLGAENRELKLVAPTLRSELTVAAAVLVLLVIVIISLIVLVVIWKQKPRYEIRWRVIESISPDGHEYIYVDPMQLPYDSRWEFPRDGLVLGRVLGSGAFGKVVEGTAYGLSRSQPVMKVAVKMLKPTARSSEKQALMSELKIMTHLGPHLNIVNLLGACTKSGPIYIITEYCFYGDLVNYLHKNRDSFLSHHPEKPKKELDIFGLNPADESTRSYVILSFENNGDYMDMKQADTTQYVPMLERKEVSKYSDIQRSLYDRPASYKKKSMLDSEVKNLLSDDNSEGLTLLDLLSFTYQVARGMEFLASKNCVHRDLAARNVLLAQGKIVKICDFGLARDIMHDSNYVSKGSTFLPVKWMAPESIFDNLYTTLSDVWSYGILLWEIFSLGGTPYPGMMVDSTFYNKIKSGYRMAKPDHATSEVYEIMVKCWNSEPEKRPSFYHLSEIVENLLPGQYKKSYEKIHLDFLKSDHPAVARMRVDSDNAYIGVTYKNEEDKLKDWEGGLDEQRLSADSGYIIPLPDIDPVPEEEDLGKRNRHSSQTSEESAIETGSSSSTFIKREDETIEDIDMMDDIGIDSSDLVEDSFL

CAMK2D (human) = CAMK2D (human) (UniProt Q13557)
CAMK1D (human) = CAMK1D (human) (UniProt Q8IU85)
BMPR2 (human) = BMPR2 (human) (UniProt Q13873)
NUAK1 (human) = NUAK1 (human) (UniProt O60285)
DCLK3 (human) = DCLK3 (human) (UniProt Q9C098)
TLK2 (human) = TLK2 (human) (UniProt Q86UE8)
MAPK8 (human) = MAPK8 (human) (UniProt P45983)
CLK1 (human) = CLK1 (human) (UniProt P49759)
Sequence of CLK1 (human) (P49759 whole entry, looked up): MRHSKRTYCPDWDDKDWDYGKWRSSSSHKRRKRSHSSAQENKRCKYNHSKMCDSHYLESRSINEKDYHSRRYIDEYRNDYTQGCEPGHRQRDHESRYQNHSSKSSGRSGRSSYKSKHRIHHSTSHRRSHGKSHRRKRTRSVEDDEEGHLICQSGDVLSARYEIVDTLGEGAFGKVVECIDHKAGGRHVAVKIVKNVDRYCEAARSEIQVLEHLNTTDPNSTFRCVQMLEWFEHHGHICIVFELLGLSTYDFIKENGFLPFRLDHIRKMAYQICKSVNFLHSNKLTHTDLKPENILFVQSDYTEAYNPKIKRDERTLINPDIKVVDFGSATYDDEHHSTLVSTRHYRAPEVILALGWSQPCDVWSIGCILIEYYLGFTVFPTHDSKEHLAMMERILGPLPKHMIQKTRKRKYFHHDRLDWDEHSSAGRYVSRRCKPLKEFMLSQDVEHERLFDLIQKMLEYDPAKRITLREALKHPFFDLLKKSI

INSR (human) = INSR (human) (UniProt P06213)
AURKC (human) = AURKC (human) (UniProt Q9UQB9)

Sequence of MAPK12 (human) (P53778 whole entry, looked up): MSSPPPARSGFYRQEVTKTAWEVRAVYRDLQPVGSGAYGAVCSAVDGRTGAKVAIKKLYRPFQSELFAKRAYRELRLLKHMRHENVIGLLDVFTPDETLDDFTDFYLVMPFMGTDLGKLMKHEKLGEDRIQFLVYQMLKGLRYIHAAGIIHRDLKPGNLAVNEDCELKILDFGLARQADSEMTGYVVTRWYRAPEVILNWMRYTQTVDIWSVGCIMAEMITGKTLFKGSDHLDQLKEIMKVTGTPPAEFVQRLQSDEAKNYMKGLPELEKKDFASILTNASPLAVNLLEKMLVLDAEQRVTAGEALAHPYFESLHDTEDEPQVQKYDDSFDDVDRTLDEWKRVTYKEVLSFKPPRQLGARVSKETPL
Sequence of CDK9 (human) (P50750 whole entry, looked up): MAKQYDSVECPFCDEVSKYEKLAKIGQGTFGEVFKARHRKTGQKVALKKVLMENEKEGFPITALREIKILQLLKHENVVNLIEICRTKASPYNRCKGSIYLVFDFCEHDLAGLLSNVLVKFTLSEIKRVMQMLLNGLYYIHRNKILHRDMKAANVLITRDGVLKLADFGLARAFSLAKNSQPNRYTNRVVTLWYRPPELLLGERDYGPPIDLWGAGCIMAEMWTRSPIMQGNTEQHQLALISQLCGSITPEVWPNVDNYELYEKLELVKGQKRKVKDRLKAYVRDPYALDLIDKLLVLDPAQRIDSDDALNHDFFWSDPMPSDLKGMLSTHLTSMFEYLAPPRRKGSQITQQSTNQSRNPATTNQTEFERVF

SMILES | kinase still bound, per cent of control (CSK (human)) [%] | kinase still bound, per cent of control (MAPK12 (human)) [%] | kinase still bound, per cent of control (MERTK (human)) [%] | kinase still bound, per cent of control (RPS6KA4 KD2 (human)) [%] | kinase still bound, per cent of control (CSNK1G3 (human)) [%] | kinase still bound, per cent of control (STK32C (human)) [%] | kinase still bound, per cent of control (EPHA8 (human)) [%] | kinase still bound, per cent of control (PAK7 (human)) [%] | kinase still bound, per cent of control (ADCK3 (human)) [%] | kinase still bound, per cent of control (MAPKAPK5 (human)) [%] | kinase still bound, per cent of control (CAMK2G (human)) [%] | kinase still bound, per cent of control (NEK9 (human)) [%] | kinase still bound, per cent of control (MARK3 (human)) [%] | kinase still bound, per cent of control (FYN (human)) [%] | kinase still bound, per cent of control (PIK3CD (human)) [%] | kinase still bound, per cent of control (LIMK1 (human)) [%] | kinase still bound, per cent of control (PAK6 (human)) [%] | kinase still bound, per cent of control (CLK3 (human)) [%] | kinase still bound, per cent of control (CSNK1G2 (human)) [%] | kinase still bound, per cent of control (INSRR (human)) [%] | other results
Cc1ccc(C(=O)Nc2cccc(C(F)(F)F)c2)cc1Nc1cncc(C(N)=O)c1 | 100 | 100 | 100 | 100 | 100 | 100 | 0.35 | 100 | 100 | 100 | 100 | 100 | 100 | 100 | 100 | 100 | 100 | 100 | 100 | 100 | kinase still bound, per cent of control (CDK9 (human)): 100%; kinase still bound, per cent of control (STK4 (human)): 100%; kinase still bound, per cent of control (MAPK11 (human)): 100%; kinase still bound, per cent of control (MYO3B (human)): 100%; kinase still bound, per cent of control (MELK (human)): 100%; kinase still bound, per cent of control (LYN (human)): 9.4%; kinase still bound, per cent of control (CSNK1D (human)): 100%; kinase still bound, per cent of control (SLK (human)): 100%; kinase still bound, per cent of control (MYLK2 (human)): 100%; kinase still bound, per cent of control (PDGFRA (human)): 0.2%; kinase still bound, per cent of control (CAMK2D (human)): 100%; kinase still bound, per cent of control (CAMK1D (human)): 100%; kinase still bound, per cent of control (BMPR2 (human)): 100%; kinase still bound, per cent of control (NUAK1 (human)): 100%; kinase still bound, per cent of control (DCLK3 (human)): 100%; kinase still bound, per cent of control (TLK2 (human)): 100%; kinase still bound, per cent of control (MAPK8 (human)): 100%; kinase still bound, per cent of control (CLK1 (human)): 100%; kinase still bound, per cent of control (INSR (human)): 100%; kinase still bound, per cent of control (AURKC (human)): 100%
COc1cc(N2CCN(C)CC2)ccc1Nc1nc(N)c(C(=O)c2c(Cl)cccc2Cl)s1 | 90 | 100 | 87 | 100 | 79 | 99 | 73 | 63 | 93 | 100 | 17 | 100 | 100 | 89 | 98 | 74 | 55 | 2 | 100 | 100 | kinase still bound, per cent of control (STK4 (human)): 100%; kinase still bound, per cent of control (MAPK11 (human)): 77%; kinase still bound, per cent of control (MYO3B (human)): 94%; kinase still bound, per cent of control (MELK (human)): 100%; kinase still bound, per cent of control (LYN (human)): 100%; kinase still bound, per cent of control (CSNK1D (human)): 100%; kinase still bound, per cent of control (SLK (human)): 1.6%; kinase still bound, per cent of control (MYLK2 (human)): 87%; kinase still bound, per cent of control (PDGFRA (human)): 84%; kinase still bound, per cent of control (CAMK2D (human)): 23%; kinase still bound, per cent of control (CAMK1D (human)): 24%; kinase still bound, per cent of control (BMPR2 (human)): 82%; kinase still bound, per cent of control (NUAK1 (human)): 100%; kinase still bound, per cent of control (DCLK3 (human)): 14%; kinase still bound, per cent of control (TLK2 (human)): 93%; kinase still bound, per cent of control (MAPK8 (human)): 81%; kinase still bound, per cent of control (CLK1 (human)): 22%; kinase still bound, per cent of control (INSR (human)): 94%; kinase still bound, per cent of control (AURKC (human)): 100%
Cc1ccc2nc(NCCN)c3ncc(C)n3c2c1 | 100 | 100 | 100 | 15 | 100 | 94 | 100 | 100 | 61 | 100 | 100 | 100 | 100 | 100 | 99 | 100 | 100 | 47 | 97 | 100 | kinase still bound, per cent of control (CDK9 (human)): 35%; kinase still bound, per cent of control (STK4 (human)): 100%; kinase still bound, per cent of control (MAPK11 (human)): 87%; kinase still bound, per cent of control (MYO3B (human)): 100%; kinase still bound, per cent of control (MELK (human)): 96%; kinase still bound, per cent of control (LYN (human)): 100%; kinase still bound, per cent of control (CSNK1D (human)): 45%; kinase still bound, per cent of control (SLK (human)): 100%; kinase still bound, per cent of control (MYLK2 (human)): 71%; kinase still bound, per cent of control (CAMK2D (human)): 100%; kinase still bound, per cent of control (CAMK1D (human)): 69%; kinase still bound, per cent of control (BMPR2 (human)): 96%; kinase still bound, per cent of control (NUAK1 (human)): 88%; kinase still bound, per cent of control (DCLK3 (human)): 76%; kinase still bound, per cent of control (TLK2 (human)): 88%; kinase still bound, per cent of control (MAPK8 (human)): 66%; kinase still bound, per cent of control (CLK1 (human)): 72%; kinase still bound, per cent of control (INSR (human)): 99%; kinase still bound, per cent of control (AURKC (human)): 100%
CCCS(=O)(=O)Nc1ccc(F)c(C(=O)c2c[nH]c3ncc(-c4ccc(Cl)cc4)cc23)c1F | 7.4 | 93 | 60 | 96 | 100 | 100 | 83 | 78 | 100 | 100 | 95 | 98 | 61 | 9.1 | 89 | 27 | 74 | 92 | 88 | 73 | kinase still bound, per cent of control (CDK9 (human)): 100%; kinase still bound, per cent of control (STK4 (human)): 11%; kinase still bound, per cent of control (MAPK11 (human)): 29%; kinase still bound, per cent of control (MYO3B (human)): 64%; kinase still bound, per cent of control (MELK (human)): 100%; kinase still bound, per cent of control (LYN (human)): 16%; kinase still bound, per cent of control (CSNK1D (human)): 97%; kinase still bound, per cent of control (SLK (human)): 1.4%; kinase still bound, per cent of control (MYLK2 (human)): 18%; kinase still bound, per cent of control (PDGFRA (human)): 0.45%; kinase still bound, per cent of control (CAMK2D (human)): 100%; kinase still bound, per cent of control (CAMK1D (human)): 100%; kinase still bound, per cent of control (BMPR2 (human)): 57%; kinase still bound, per cent of control (NUAK1 (human)): 100%; kinase still bound, per cent of control (DCLK3 (human)): 47%; kinase still bound, per cent of control (TLK2 (human)): 94%; kinase still bound, per cent of control (MAPK8 (human)): 18%; kinase still bound, per cent of control (CLK1 (human)): 70%; kinase still bound, per cent of control (INSR (human)): 78%
